pIC50: −log10 of the molar value.
System: HIV-1 (HIVIIIB)
Test: HIV-1 replication in MT2 cell line with and without 30% human serum (viral RT activity in supernatant)
Assay type: cell-based
Conditions: Human immunodeficiency virus 1, MT2, MT-2 cells, with 30% human serum, average IC50 if tested more than once, read-out: MT-2 (HIVIIIB) with 30% HS IC50 range
Method: HIV-1 Replication in MT2 cell line with and without 30% human serum: The cells are infected at a Multiciplicity of Infection (MOI) of 0.5 for 3 h and then washed twice with complete media to remove residual virus. Cells are then resuspended at 0.5×10^6/ml in complete medium (RPMI, 10% FBS, 1% sodium pyruvate), and seeded into 96-well plates (6.25×10^4/well). The cells are cultured in the presence or absence of various concentrations of test compounds in serial dilutions for 3 days at 37° C. The test compounds are serially diluted in complete medium supplemented or not with 30% human serum. After 3 days, 100 μL of cultured medium with cells are replaced with 120 μL of freshly diluted test compounds in complete medium containing or not 30% Human serum. The level of HIV-1 replication is determined at days 5 after infection by the presence of viral RT activity in harvested supernatant fluid. The IC50 and IC90 values for the virus replication are determined by using GRAPHPAD PRISM software.
The IC50 of the compounds tested in accordance with the HIV replication activity assay MT-2 (HIVIIIB) are represented in Table 4 (without HS) and Table 5 (with 30% HS)

Compound	pIC50
CC(C)C1=C2[C@H]3CC[C@@H]4[C@@]5(C)CC[C@H](OC(=O)CC(C)(C)C(=O)O)C(C)(C)[C@@H]5CC[C@@]4(C)[C@]3(C)CC[C@@]2(C(=O)Nc2cccnc2)CC1=O [9-26, 3β-O-(3′,3′-Dimethylsuccinyl)-21-oxolup-18-en-28-oic acid N-pyridin-3-yl-acetamide]	> 6.70
CC(C)C1=C2[C@H]3CC[C@@H]4[C@@]5(C)CC[C@H](OC(=O)CC(C)(C)C(=O)O)C(C)(C)[C@@H]5CC[C@@]4(C)[C@]3(C)CC[C@@]2(C(=O)N2CCN(C(=O)OC(C)(C)C)CC2)CC1=O [9-27, 3β-O-(3′,3′-Dimethylsuccinyl)-21-oxolup-18-en-28-oic acid N-1-acetyl-piperazine-4-carboxylic acid tert-butyl ester]	> 6.70
CC(C)C1=C2[C@H]3CC[C@@H]4[C@@]5(C)CC[C@H](OC(=O)CC(C)(C)C(=O)O)C(C)(C)[C@@H]5CC[C@@]4(C)[C@]3(C)CC[C@@]2(C(=O)N2CCNCC2)CC1=O [9-28, 3β-O-(3′,3′-Dimethylsuccinyl)-21-oxolup-18-en-28-oic acid N-piperazinyl-acetamide]	> 6.70
CC(C)C1=C2[C@H]3CC[C@@H]4[C@@]5(C)CC[C@H](OC(=O)CC(C)(C)C(=O)O)C(C)(C)[C@@H]5CC[C@@]4(C)[C@]3(C)CC[C@@]2(C(=O)NC2CCNCC2)CC1=O [9-31, 3β-O-(3′,3′-Dimethylsuccinyl)-21-oxolup-18-en-28-oic acid N-(4-aminopiperidine)-acetamide]	6.00 to 6.70
CC(=O)N1CCC(NC(=O)[C@@]23CC[C@]4(C)[C@H](CC[C@@H]5[C@@]6(C)CC[C@H](OC(=O)CC(C)(C)C(=O)O)C(C)(C)[C@@H]6CC[C@]54C)C2=C(C(C)C)C(=O)C3)CC1 [9-32, 3β-O-(3′,3′-Dimethylsuccinyl)-21-oxolup-18-en-28-oic acid N-(4-amino-N-1-acetyl-piperidine)-acetamide]	> 6.70
CC(C)C1=C2[C@H]3CC[C@@H]4[C@@]5(C)CC[C@H](OC(=O)CC(C)(C)C(=O)O)C(C)(C)[C@@H]5CC[C@@]4(C)[C@]3(C)CC[C@@]2(C(=O)NC(C)c2ccccc2)CC1=O (stereo partly drawn) [9-33, 3β-O-(3′,3′-Dimethylsuccinyl)-21-oxolup-18-en-28-oic acid N-(1-phenyl-ethyl)-acetamide]	> 6.70
CC(C)C1=C2[C@H]3CC[C@@H]4[C@@]5(C)CC[C@H](OC(=O)CC(C)(C)C(=O)O)C(C)(C)[C@@H]5CC[C@@]4(C)[C@]3(C)CC[C@@]2(C(=O)NC(C)(C)c2ccccc2)CC1=O [9-34, 3β-O-(3′,3′-Dimethylsuccinyl)-21-oxolup-18-en-28-oic acid N-(1-methyl-1-phenyl-ethyl)-acetamide]	> 6.70
CC(C)C1=C2[C@H]3CC[C@@H]4[C@@]5(C)CC[C@H](OC(=O)CC(C)(C)C(=O)O)C(C)(C)[C@@H]5CC[C@@]4(C)[C@]3(C)CC[C@@]2(C(=O)N2C3CCC2CN(C(=O)c2ccccc2)C3)CC1=O [9-36, 3β-O-(3′,3′-Dimethylsuccinyl)-21-oxolup-18-en-28-oic acid N-(8-amino-3,8-diaza-bicyclo[3.2.1]octane-3-benzamide)-acetamide]	> 6.70
CC(C)C1=C2[C@H]3CC[C@@H]4[C@@]5(C)CC[C@H](OC(=O)CC(C)(C)C(=O)O)C(C)(C)[C@@H]5CC[C@@]4(C)[C@]3(C)CC[C@@]2(C(=O)N2CCNC(=O)C2)CC1=O [9-37, 3β-O-(3′,3′-Dimethylsuccinyl)-21-oxolup-18-en-28-oic acid N-4-piperazi-2-one acetamide]	> 6.70
CC(C)C1=C2[C@H]3CC[C@@H]4[C@@]5(C)CC[C@H](OC(=O)CC(C)(C)C(=O)O)C(C)(C)[C@@H]5CC[C@@]4(C)[C@]3(C)CC[C@@]2(C(=O)Nc2ncccn2)CC1=O [9-38, 3β-O-(3′,3′-Dimethylsuccinyl)-21-oxolup-18-en-28-oic acid N-pyrimidin-2-yl-acetamide]	> 6.70
CC(C)NC(=O)N1CCN(C(=O)[C@@]23CC[C@]4(C)[C@H](CC[C@@H]5[C@@]6(C)CC[C@H](OC(=O)CC(C)(C)C(=O)O)C(C)(C)[C@@H]6CC[C@]54C)C2=C(C(C)C)C(=O)C3)CC1 [9-39, 3β-O-(3′,3′-Dimethylsuccinyl)-21-oxolup-18-en-28-oic acid N-(4-N′-isopropylureido-1-piperazine)-acetamide]	> 6.70
COC(=O)N1CCN(C(=O)[C@@]23CC[C@]4(C)[C@H](CC[C@@H]5[C@@]6(C)CC[C@H](OC(=O)CC(C)(C)C(=O)O)C(C)(C)[C@@H]6CC[C@]54C)C2=C(C(C)C)C(=O)C3)CC1 [9-40, 3β-O-(3′,3′-Dimethylsuccinyl)-21-oxolup-18-en-28-oic acid N-1-acetyl-piperazine-4-carboxylic acid methyl ester]	> 6.70
CC(C)C1=C2[C@H]3CC[C@@H]4[C@@]5(C)CC[C@H](OC(=O)CC(C)(C)C(=O)O)C(C)(C)[C@@H]5CC[C@@]4(C)[C@]3(C)CC[C@@]2(C(=O)N2CCC(NC(=O)OC(C)(C)C)CC2)CC1=O [9-41, 3β-O-(3′,3′-Dimethylsuccinyl)-21-oxolup-18-en-28-oic acid N-(4-aminocarboxylic acid tert-butyl-ester-1-piperidine)-acetamide]	> 6.70
CC(C)C1=C2[C@H]3CC[C@@H]4[C@@]5(C)CC[C@H](OC(=O)CC(C)(C)C(=O)O)C(C)(C)[C@@H]5CC[C@@]4(C)[C@]3(C)CC[C@@]2(C(=O)N2CCC(N)CC2)CC1=O [9-42]	> 6.70
CC(=O)NC1CCN(C(=O)[C@@]23CC[C@]4(C)[C@H](CC[C@@H]5[C@@]6(C)CC[C@H](OC(=O)CC(C)(C)C(=O)O)C(C)(C)[C@@H]6CC[C@]54C)C2=C(C(C)C)C(=O)C3)CC1 [9-43, 3β-O-(3′,3′-Dimethylsuccinyl)-21-oxolup-18-en-28-oic acid N-(4-acetylamino-1-piperidine)-acetamide]	> 6.70
CC(C)NC(=O)NC1CCN(C(=O)[C@@]23CC[C@]4(C)[C@H](CC[C@@H]5[C@@]6(C)CC[C@H](OC(=O)CC(C)(C)C(=O)O)C(C)(C)[C@@H]6CC[C@]54C)C2=C(C(C)C)C(=O)C3)CC1 [9-44, 3β-O-(3′,3′-Dimethylsuccinyl)-21-oxolup-18-en-28-oic acid N-[(4-amino-N′-isopropylureido)-1-piperidine]-acetamide]	> 6.70
COC(=O)NC1CCN(C(=O)[C@@]23CC[C@]4(C)[C@H](CC[C@@H]5[C@@]6(C)CC[C@H](OC(=O)CC(C)(C)C(=O)O)C(C)(C)[C@@H]6CC[C@]54C)C2=C(C(C)C)C(=O)C3)CC1 [9-45, 3β-O-(3′,3′-Dimethylsuccinyl)-21-oxolup-18-en-28-oic acid N-(4-aminocarboxylic acid methyl ester-1-piperidine)-acetamide]	> 6.70
CC(C)C1=C2[C@H]3CC[C@@H]4[C@@]5(C)CC[C@H](OC(=O)CC(C)(C)C(=O)O)C(C)(C)[C@@H]5CC[C@@]4(C)[C@]3(C)CC[C@@]2(C(=O)N2CCN(C)C(=O)C2)CC1=O [9-46, 3β-O-(3′,3′-Dimethylsuccinyl)-21-oxolup-18-en-28-oic acid N-4-(1-methyl-piperazi-2-one)-acetamide]	> 6.70
